Measured values published in US11767504B2, “Albumin compositions and methods of producing and using same” (Albcura Corporation, priority 2020, dated 2023).

Test system: Insulin
Assay: Assay of insulin aggregation stabilization by various albumin (absorbance at 360 nm)
Assay type: biochemical
Conditions: 1−(A360 with albumin)/(A360 of (−) group), at time point where control A360 near 0.35; albumin samples 2 mg/mL mixed 1:1 with 0.7 mg/mL insulin working solution, 37° C.
Method: Various albumin samples were diluted to 2 mg/mL in purified water. An assay working solution was prepared containing 60 mM of HEPES (pH=7.4), 300 mM of NaCl, 30 mM of 2-mercaptoethanol, and 0.7 mg/mL of Insulin. In a 96-well plate, 100 μL of the assay working solution was mixed with 100 μL of each albumin sample. The plate was incubated at 37° C. inside a plate reader, and the absorbance at 360 nm was measured every 30 seconds for 60 minutes.
The absorbance data at 360 nm (A360) of each group was picked at the time point where the A360 of the control group (without albumin, labeled as (−)) was near 0.35. […] Stabilizing Efficiency %=1−(A360 of experimental group with albumin)/(A360 of (−) group)

fatty acid free BSA: Fatty acid-free BSA from Sigma Aldrich (A8806)
Stabilizing Efficiency: 53%
